Measurements from EP0437382A1, “Thimidin derivatives, their preparation and compositions containing them” (RHONE-POULENC SANTE, priority 1990, dated 1991).
Values after ≈ are worked out from the molar mass of the structure shown.

How the values were obtained:
[1] = system: transcriptase inverse du virus HIV; assay: Viral multiplication by reverse transcriptase assay on culture supernatant; format: cell-based; settings: 0,1 µg/cm³
Experimental: Le test est réalisé sur la lignée lymphoblastoïde CEM clone 13. Dans une microplaque de 96 puits on dépose 25 µl/puit d'une solution de produit à tester ou de tampon phosphate isotonique (TPI) dans le cas des contrôles. Les produits sont étudiés à différentes concentrations (souvent 8), à raison de 4 puits par concentration. On ajoute alors 125 µl d'une suspension de cellules CEM dans le milieu RPMI contenant 10 % de sérum de veau foetal, 40 U/ml de pénicilline, 40 µg/ml de streptomycine et 5 µg/ml de polybrène (3500 cellules par puit) et les microplaques sont incubées une heure à 37°C, sous une atmosphère contenant 5 % de gaz carbonique. L'essai est fait en double: une partie sur cellules infectées, pour la détermination de l'activité antivirale et l'autre partie sur cellules non infectées, pour déterminer la cytotoxité des produits. On infecte la première série avec HIV (100 µl par puit d'une suspension de virus LAV-1-BRU contenant 200-300 TCID50) tandis que l'autre série reçoit 100 µl de milieu RPMI tel que défini précédemment. Après 7 jours d'incubation, 175 µl de surnageant sont prélevés et seront utilisés par la suite pour le dosage de la reverse transcriptase. La viabilité cellulaire est déterminée selon une modification de la technique décrite par R. PAUWELS et coll., J. Virol. Meth., 20, 309-321 (1988). […]

[2] = system: précurseurs granulocytaires/macrophagiques de la moelle osseuse; assay: CFU-G/M test (bone marrow granulocyte/macrophage precursors, clone formation); format: cell-based, humaine; settings: CFU-GM, human bone marrow, read-out: concentration inhibitrice de 50% de la formation des clones
Text: (§1) Enfin, les produits selon l'invention manifestent un intérêt considérable du fait de leur absence de toxicité à des concentrations élevées à l'égard des précurseurs hématopoietiques de la moelle humaine.
(§2) Il est en effet connu que l'un des problèmes majeurs associés au traitement par certains produits de cette classe, est la toxicité sur les précurseurs erythrocytaires et granulocytaires/macrophagiques de la moelle osseuse, qui se traduit du point de vue clinique dans des sévères anémies et leucopénies [D.D. RICHMAN et al., N. Engl. J. Med., 317, 192-197, (1987). R. YARCHOAN et al., Lancet i, 575-580, (1986)]. Cette toxicité peut être mise en évidence au niveau du laboratoire par des tests in vitro, sur des précurseurs erythrocytaires et granulocytaires/macrophagiques de la moelle osseuse (J.P. SOMMADOSSI et R. CARLISLE, Antimicro. Ag. Chemother., 31, 452-454, (1987). L'étude est mise en oeuvre dans les techniques de D. THIERRY et al., Acta Radiol., 24, 521-526, (1985) et D. METCALF, Hematopoietic Colony Stimulating factors, p 88-89, Elsevier (1984).
(§3) Dans le test CFU-G/M, la concentration inhibitrice de 50% de la formation des clones est de 30 µg/ml.

[3] = system: lignée lymphoblastoïde CEM clone 13, cellules non infectées; assay: Cytotoxicity on non-infected CEM cells (MTT viability); format: cell-based, humaines; settings: 7 days, control (0 µg/ml) 0.954
Experimental: (§4) Dans ce qui suit on décrit les résultats sur l'effet cytopathogène et la multiplication du virus HIV dans une lignée cellulaire permissive (cellules lymphoblastoïdes humaines CEM).
(§5) Le test est réalisé sur la lignée lymphoblastoïde CEM clone 13. Dans une microplaque de 96 puits on dépose 25 µl/puit d'une solution de produit à tester ou de tampon phosphate isotonique (TPI) dans le cas des contrôles. Les produits sont étudiés à différentes concentrations (souvent 8), à raison de 4 puits par concentration. On ajoute alors 125 µl d'une suspension de cellules CEM dans le milieu RPMI contenant 10 % de sérum de veau foetal, 40 U/ml de pénicilline, 40 µg/ml de streptomycine et 5 µg/ml de polybrène (3500 cellules par puit) et les microplaques sont incubées une heure à 37°C, sous une atmosphère contenant 5 % de gaz carbonique. L'essai est fait en double: une partie sur cellules infectées, pour la détermination de l'activité antivirale et l'autre partie sur cellules non infectées, pour déterminer la cytotoxité des produits. On infecte la première série avec HIV (100 µl par puit d'une suspension de virus LAV-1-BRU contenant 200-300 TCID50) tandis que l'autre série reçoit 100 µl de milieu RPMI tel que défini précédemment. Après 7 jours d'incubation, 175 µl de surnageant sont prélevés et seront utilisés par la suite pour le dosage de la reverse transcriptase. La viabilité cellulaire est déterminée selon une modification de la technique décrite par R. PAUWELS et coll., J. Virol. Meth., 20, 309-321 (1988).
(§6) Les puits, contenant encore les cellules (infectées ou non infectées), reçoivent 10 µl d'une solution de MTT (méthylthiazoletétrazolium) à 5 mg/ml dans du tampon phosphate isotonique. Pendant une période d'incubation de 4 heures, le MTT est converti en un sel de formazan (bleu) à l'intérieur des cellules vivantes et proportionnellement à leur nombre, alors que rien n'apparaît dans les puits ne contenant plus que des cellules mortes. On ajoute alors 120 µl d'isopropanol (contenant 0,04 mole/l d'acide chlorhydrique) et les microplaques sont agitées jusqu'à la solubilisation du bleu de formazan. […]
(§7) Dans ces conditions les cellules infectées sont lysées à environ 60-70 % par rapport aux cellules non infectées. On établit la concentration du produit qui inhibe l'effet cytopathogène du virus de 50 % (CE50). On détermine également celle qui inhibe de 50 % la croissance des cellules non infectées (CC50). Le rapport entre CC50 et CE50 est défini comme l'indice de sélectivité antivirale i.

[4] = as above; format: cell-based, humaines; settings: human; non-infected CEM cells, 7 days; read-out: CC50 (concentration qui inhibe de 50 % la croissance des cellules non infectées)
Experimental: as §4, §5, §6, §7

[5] = system: précurseurs erythrocytaires de la moelle osseuse; assay: BFU-E test (bone marrow erythrocyte precursors); format: cell-based, humaine; settings: 108 µg/ml, human bone marrow
Text: as §1, §2, §3

virus HIV (LAV-1-BRU) = assay: microbe, parasite or virus in culture; format: cell-based; settings: for Cellules infectées densité optique DO 600: control (0 µg/ml) 0.293
Experimental: as §4, §5, §6, §7

## Cc1cn([C@H]2C[C@H](N=[N+]=[N-])[C@@H](CO)O2)c(=O)n(N)c1=O [Exemple 1, azido-3′ amino-3 désoxy-3′ thymidine]
[1]; untreated infected cultures 204363 cpm
  activité de la transcriptase inverse, coups par minute (cpm): 44558 cpm
[1]; Human immunodeficiency virus 1, CCRF-CEM, 168 h, culture supernatant after 7 days, read-out: % d'inhibition (reverse transcriptase du virus HIV)
  inhibition at 0.1 µg/mL: 80%
[2]
  IC50: 30 µg/mL (≈ 106 µM)
[3]; 0.0003 µg/ml
  cellules non infectées densité optique DO 600: 0.935
[3]; 0.001 µg/ml
  cellules non infectées densité optique DO 600: 0.888
[3]; 0.003 µg/ml
  cellules non infectées densité optique DO 600: 0.882
[3]; 0.01 µg/ml
  cellules non infectées densité optique DO 600: 0.884
[3]; 0.03 µg/ml
  cellules non infectées densité optique DO 600: 0.901
[3]; 0.1 µg/ml
  cellules non infectées densité optique DO 600: 0.928
[3]; 0.3 µg/ml
  cellules non infectées densité optique DO 600: 0.931
[3]; 1 µg/ml
  cellules non infectées densité optique DO 600: 0.909
[3]; 3 µg/ml
  cellules non infectées densité optique DO 600: 0.892
[3]; 10 µg/ml
  cellules non infectées densité optique DO 600: 0.368
[3]; 30 µg/ml
  cellules non infectées densité optique DO 600: 0.004
[4]
  CC50 at 168 h: 10 µg/mL (≈ 35.4 µM)
[5]
  toxicité dans le test BFU-E: dépourvu de toxicité
Virus HIV (LAV-1-BRU); 0.0003 µg/ml, 7 days
  Cellules infectées densité optique DO 600: 0.311
Virus HIV (LAV-1-BRU); 0.001 µg/ml, 7 days
  Cellules infectées densité optique DO 600: 0.359
Virus HIV (LAV-1-BRU); 0.003 µg/ml, 7 days
  Cellules infectées densité optique DO 600: 0.456
Virus HIV (LAV-1-BRU); 0.01 µg/ml, 7 days
  Cellules infectées densité optique DO 600: 0.565
Virus HIV (LAV-1-BRU); 0.03 µg/ml, 7 days
  Cellules infectées densité optique DO 600: 0.577
Virus HIV (LAV-1-BRU); 0.1 µg/ml, 7 days
  Cellules infectées densité optique DO 600: 0.596
Virus HIV (LAV-1-BRU); 0.3 µg/ml, 7 days
  Cellules infectées densité optique DO 600: 0.838
Virus HIV (LAV-1-BRU); 1 µg/ml, 7 days
  Cellules infectées densité optique DO 600: 0.926
Virus HIV (LAV-1-BRU); 3 µg/ml, 7 days
  Cellules infectées densité optique DO 600: 0.865
Virus HIV (LAV-1-BRU); 10 µg/ml, 7 days
  Cellules infectées densité optique DO 600: 0.441
Virus HIV (LAV-1-BRU); 30 µg/ml, 7 days
  Cellules infectées densité optique DO 600: 0.007
Virus HIV (LAV-1-BRU); Human immunodeficiency virus 1, CCRF-CEM, 168 h, infected CEM cells, 7 days, read-out: CE50 (concentration qui inhibe l'effet cytopathogène du virus de 50 %)
  EC50: 0.01 µg/mL (≈ 0.0354 µM)
Virus HIV (LAV-1-BRU); human, cem cells, 168 h
  indice de sélectivité i = CC50/CE50: 1000
